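Dose response: 5 concentrations. Exposure: 48 h. Format: 96-well plates. Endpoint: linear interpolation; highest concentration if not reached. Here, GI50 denotes the concentration required for 50% inhibition of growth.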 Active and inactive are the calls of the source. Cut-off read from the data, not from the text of the source: active = GI50 up to about 1.1 µM and inactive = higher.
Tests used:
Test in all cases: NCI tumour cell line growth inhibition, 48 h
786-0 = test system: 786-0
A498 = test system: A498
ACHN = test system: ACHN
CCRF-CEM = test system: CCRF-CEM
HOP-92 = test system: HOP-92
K562 = test system: K562
Malme-3M = test system: Malme-3M
OVCAR-4 = test system: OVCAR-4
OVCAR-5 = test system: OVCAR-5
SF-295 = test system: SF-295
SK-MEL-28 = test system: SK-MEL-28
SN12C = test system: SN12C
SNB-19 = test system: SNB-19
HCC 2998 = test system: HCC 2998

Measured: GI50

O=c1[nH]cnc2c(COCCO)c[nH]c12
inactive: 786-0 > 100 µM | A498 > 100 µM | ACHN > 100 µM | CCRF-CEM > 100 µM | HOP-92 > 100 µM | K562 > 100 µM | Malme-3M > 100 µM | OVCAR-4 > 100 µM | OVCAR-5 > 100 µM | SF-295 > 100 µM | SK-MEL-28 > 100 µM | SN12C > 100 µM | SNB-19 > 100 µM

COC(=O)C(C(=O)Cc1ccccc1[N+](=O)[O-])C(=O)OC
inactive: 786-0 > 100 µM | ACHN > 100 µM | CCRF-CEM 74.6 µM | HCC 2998 > 100 µM | HOP-92 > 100 µM | Malme-3M > 100 µM | OVCAR-4 > 100 µM | SF-295 42.2 µM | SK-MEL-28 > 100 µM | SN12C > 100 µM | SNB-19 > 100 µM

Cc1c(N)c(C#N)c2n(C)c3ncccc3n2c1=O
inactive: 786-0 > 100 µM | ACHN > 100 µM | CCRF-CEM > 100 µM | HCC 2998 > 100 µM | HOP-92 > 100 µM | K562 > 100 µM | Malme-3M > 100 µM | OVCAR-4 > 100 µM | SF-295 > 100 µM | SK-MEL-28 > 100 µM | SN12C > 100 µM | SNB-19 > 100 µM

CCOC(=O)C1(C(=O)OCC)C(C(C)(C)C)=C(C)c2ccccc21
inactive: 786-0 15.8 µM | ACHN 13.2 µM | CCRF-CEM 13.1 µM | HCC 2998 16 µM | HOP-92 3.4 µM | K562 8.55 µM | Malme-3M 11.4 µM | OVCAR-4 14.9 µM | OVCAR-5 14.4 µM | SF-295 11.7 µM | SK-MEL-28 12.5 µM | SN12C 15.3 µM | SNB-19 19.9 µM

C=C1CC(CC(=O)C(C)CC2CC(=C)C(=O)O2)OC1=O (stereo not drawn)
inactive: 786-0 20.3 µM | A498 46.5 µM | ACHN 18.6 µM | CCRF-CEM 6.3 µM | HCC 2998 37.1 µM | HOP-92 17.7 µM | K562 22.7 µM | Malme-3M 14.5 µM | OVCAR-4 16.4 µM | OVCAR-5 65.9 µM | SF-295 > 100 µM | SK-MEL-28 15.8 µM | SN12C 16.7 µM | SNB-19 > 100 µM

CCOC(=O)c1c2ccc(/C=C/C(=O)OC)ccc-2c(C(=O)OCC)c1N
inactive: 786-0 > 100 µM | A498 6.52 µM | ACHN > 100 µM | CCRF-CEM > 100 µM | HCC 2998 > 100 µM | HOP-92 > 100 µM | K562 > 100 µM | Malme-3M > 100 µM | OVCAR-4 > 100 µM | OVCAR-5 > 100 µM | SF-295 > 100 µM | SK-MEL-28 1.62 µM | SNB-19 > 100 µM

CN(C)CC1CCC(CN(C)C)C1=NO (stereo not drawn)
inactive: 786-0 > 100 µM | ACHN > 100 µM | CCRF-CEM > 100 µM | HCC 2998 > 100 µM | HOP-92 > 100 µM | K562 > 100 µM | Malme-3M > 100 µM | OVCAR-4 > 100 µM | OVCAR-5 > 100 µM | SF-295 > 10 µM | SK-MEL-28 > 100 µM | SN12C > 100 µM

NC(=S)N/N=C/C(=C/Nc1ccccc1)[N+](=O)[O-]
inactive: 786-0 > 100 µM | ACHN > 100 µM | CCRF-CEM > 100 µM | HOP-92 > 100 µM | K562 > 100 µM | Malme-3M > 100 µM | OVCAR-4 > 100 µM | OVCAR-5 > 100 µM | SF-295 > 100 µM | SK-MEL-28 > 100 µM | SN12C > 100 µM | SNB-19 > 100 µM

O=C(Nc1cc(Cl)cc(Cl)c1)/C(Cc1nc2ccccc2nc1O)=N/NC(=O)c1ccncc1
inactive: 786-0 > 100 µM | A498 > 100 µM | ACHN > 100 µM | CCRF-CEM > 100 µM | HCC 2998 > 100 µM | HOP-92 14.4 µM | K562 > 100 µM | Malme-3M > 100 µM | OVCAR-4 > 100 µM | OVCAR-5 67 µM | SF-295 > 100 µM | SNB-19 > 100 µM

c1cncc(C2c3[nH]c4ccccc4c3CCN2CCCN2CCCCC2)c1 (stereo not drawn)
inactive: 786-0 > 100 µM | A498 > 100 µM | ACHN > 100 µM | HCC 2998 > 100 µM | HOP-92 > 100 µM | K562 > 100 µM | Malme-3M 29.7 µM | OVCAR-4 > 100 µM | OVCAR-5 > 100 µM | SF-295 > 100 µM | SK-MEL-28 20.3 µM | SN12C > 100 µM | SNB-19 > 100 µM

COc1cc2c(cn1)[nH]c1ccccc12
inactive: 786-0 > 100 µM | ACHN > 100 µM | CCRF-CEM > 100 µM | HCC 2998 > 100 µM | HOP-92 > 100 µM | K562 > 100 µM | Malme-3M > 100 µM | OVCAR-4 > 100 µM | OVCAR-5 > 100 µM | SF-295 > 100 µM | SK-MEL-28 67.5 µM | SN12C > 100 µM | SNB-19 > 100 µM

Source: ChEMBL document CHEMBL1201862, “PubChem BioAssay data set” (2004)
